Source: publication PMC6600665, “Identification and Characterization of Approved Drugs and Drug-Like Compounds as Covalent Escherichia coli ClpP Inhibitors” (International Journal of Molecular Sciences, 2019)
pIC50: −log10 of the molar value. Where “and” joins values, the source holds several entries; their conditions need not be identical. Equal values may be shown once. Peptide text beside a SMILES is read from it.

Experiments:
E. coli ClpP [1] = target: T1, E. coli ClpP (Escherichia coli, UniProt P0A6G7); assay: Fluorescence-based E. coli ClpP proteolytic activity assay (Suc-LY-AMC), primary screen and dose-response; type: biochemical; conditions: for inhibition at 200 µM: read-out: E. coli ClpP inhibition [%] in the primary screen, primary screen, 200 µM; for Inhibition (%) at 200 μM E. coli ClpP: 200 μM compound concentration; for pIC50: read-out: E. coli ClpP IC50
T1 construct: His-tag; made in house; host or cells: E. coli SG1146a
Protocol: Briefly, 25 ng/μL of E. coli ClpP dissolved in a buffer containing 100 mM NaCl, 100 mM 4-(2-hydroxyethyl)-1-piperazineethanesulfonic acid (HEPES) pH 7.5, and 0.05% Brij® 35 were transferred into each well. Test compound addition (final concentration 200 µM) was carried out using an Echo® 550 liquid handling system (Labcyte, Sunnyvale, CA, USA). […] Changes in fluorescence (excitation 350 nm, emission 435 nm) were monitored at 1 min intervals at 30 °C over 1 h using an Infinite M1000 microplate reader (Tecan).
The assay was carried out as described above with increasing concentrations of test compounds. Dose-response experiments were done at least 3 times independently, each in technical triplicates.
Calculation of Z prime (Z’) for HTS assay performance was done according to Zhang et al.. Plates were considered for further analyses if Z’ > 0.6 [26].

A549 cells = assay: in vitro; type: cell-based; conditions: for pIC50: 48 h incubation, 1:3 dilutions starting from 200 μM, read-out: Cytotoxicity A549 IC50
Protocol: (§1) Potential cell toxicity of the tested compounds was evaluated by ATP quantification using the CellTiter-Glo® luminescent cell viability assay (Promega, Madison, WI, USA). […] After incubation, 20 µL of CellTiter-Glo® reagent were added per well and incubated at room temperature in the dark for another 30 min. Luminescence was quantified by an EnVision multi-plate reader (PerkinElmer, Rodgau, Germany).

HTC-116 cells = assay: in vitro; type: cell-based; conditions: for pIC50: 48 h incubation, 1:3 dilutions starting from 200 μM, read-out: Cytotoxicity HTC-116 IC50
Protocol: as §1

MCF-7 cells = assay: in vitro; type: cell-based; conditions: for pIC50: 48 h incubation, 1:3 dilutions starting from 200 μM, read-out: Cytotoxicity MCF-7 IC50
Protocol: as §1

E. coli ClpP [2] = target: T1, E. coli ClpP; assay: Surface plasmon resonance binding to immobilized ClpP; conditions: 80 µM, injected over 7 min, 30 min dissociation
Protocol: E. coli ClpP (80 μg/mL) protein was immobilized, using amine coupling (SPR-AS-HCA-03, Bruker Daltonics Inc., Billerica, MA, USA), onto the surface of the sensor chip of a SIERRA SPR-16 instrument (Bruker Daltonics GmbH, Bremen, Germany). ClpP protein was dissolved in acetate at pH 4. The running buffer contained 150 mM NaCl, 10 mM Hepes, 3 mM EDTA, and 0.05% (v/v) Tween-20. The flow rate for protein immobilization was 10 μL/min. Binding experiments were carried out using running buffer with the addition of 0.8% (v/v) of DMSO and 80 µM test substance (flow rate of 20 μL/min for 7 min and up to 30 min of dissociation time). […] SPR data were analyzed using the Analyzer 3 software (Bruker Daltonics GmbH), which includes algorithms for subtracting reference signals and accounting for non-specific interactions between the solvent and the sensor chip surface.

[3] = system: E. coli BW25-113 (wild type); assay: Growth delay under nitric oxide stress (DPTA NONOate) in M9 medium, wild type; type: cell-based; conditions: M9 minimal medium
Protocol: (§2) Assessment of E. coli growth delay in presence of nitric oxide stress was carried out following our recently published protocol, which is an adaptation of the method reported by Robinson and Brynildsen to a 96-well plate format. Fresh MHB medium was inoculated with isolated colonies of E. coli BW25-113 or E. coli JW0427-1, grown on Luria Agar, and left overnight in a shaking incubator (250 rpm) at 37 °C. On the following day, the overnight culture was used to inoculate fresh M9 medium (supplemented with 10 mM glucose) 1:100, and was grown until OD600 ~0.3. Afterwards, the culture was transferred into 96-well, flat-bottom, sterile clear plates (#167008, Nunc, VWR). Bacterial OD600 was adjusted to 0.1 with M9 medium (supplemented with 10 mM glucose). Test compounds were transferred into the 96-well plates, followed by addition of the bacterial culture. Nitric oxide stress was induced by addition of 2 mM DPTA NONOate ((Z)-1-[N-(3-aminopropyl)-N-(3-ammoniopropyl)amino]diazen-1-ium-1,2-diolate, Cayman Chemical, Ann Arbor, MI, USA), dissolved in NaOH (final concentration 0.14 mM). Absorbance measurements (600 nm) were done with a Multiskan GO or Varioskan LUX plate reader (Thermo Fisher Scientific, Finland) at hourly intervals for 24 h. Between measurements, plates were incubated in a shaking incubator (500 rpm) at 37 °C.

E. coli JW0427 (ΔclpP) = assay: Growth delay under nitric oxide stress (DPTA NONOate) in M9 medium, clpP-deficient strain; type: cell-based; conditions: for Growth delay in presence of nitric oxide stress: clpP-deficient E. coli, DPTA NONOate, compared with cells without compound
Protocol: as §2

bovine α-chymotrypsin = target: T2, bovine α-chymotrypsin (Bos taurus, UniProt P00766); assay: Serine protease selectivity assay with bovine α-chymotrypsin (Suc-LY-AMC); type: biochemical; conditions: 200 μM compound concentration
T2 construct: purchased Sigma-Aldrich C4129
Protocol: Compound selectivity was assessed using bovine α-chymotrypsin (#C4129, Sigma-Aldrich, St. Louis, MO, USA) at 200 µM. The assay was carried out as described above, except that 1 ng/μL of α-chymotrypsin and 100 μM of Suc-LY-AMC substrate were dissolved in a buffer containing 150 mM NaCl, 10 mM CaCl2, 50 mM Tris-HCl, and 0.05% Brij® 35.

[4] = dose-response, 1:3 dilution starting from 200 μM, substrate Suc-LY-AMC

T1 sequence (P0A6G7 15-207): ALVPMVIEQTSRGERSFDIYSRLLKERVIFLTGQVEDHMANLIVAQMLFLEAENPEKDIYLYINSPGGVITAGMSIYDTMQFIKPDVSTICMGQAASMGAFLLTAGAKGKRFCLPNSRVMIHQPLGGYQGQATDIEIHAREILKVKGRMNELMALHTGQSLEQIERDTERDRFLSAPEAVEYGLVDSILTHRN

CO/N=C(\C(=O)N[C@@H]1C(=O)N2C(C(=O)O)=C(CSc3nc(=O)c(=O)[nH]n3C)CS[C@H]12)c1csc(N)n1 [ceftriaxone]
inhibition at 200 µM (E. coli ClpP [1]): -4.6 to 19.3%

O=C(O)C1CCCCC1C(=O)Nc1ccc(S(=O)(=O)NC2CCCCC2)cc1 (stereo not shown) [2-({4-[(cyclohexylamino)sulfonyl]anilino}carbonyl)cyclohexanecarboxylic acid]
E. coli ClpP inhibition [%] in the primary screen (E. coli ClpP [1]; primary screen, 200 µM): 72.93%

CC(=O)Oc1ccccc1C(=O)Nc1ncc([N+](=O)[O-])s1 [Nitazoxanide]
inhibition at 200 µM (E. coli ClpP [1]): 80%

O=C(O)c1cc(/N=N/c2ccc(S(=O)(=O)Nc3ccccn3)cc2)ccc1O [Sulfasalazine]
inhibition at 200 µM (E. coli ClpP [1]): 77.3%

CC(C)C[C@H](NC(=O)OCc1ccccc1)C(=O)N[C@@H](Cc1ccc(O)cc1)C(=O)CCl [Z-LY-CMK, benzyloxycarbonyl-leucyl-tyrosine chloromethyl ketone] (HELM PEPTIDE1{[O=C(OCc1ccccc1)[*:2]].L.Y.[ClC[*:1]]}$$$$V2.0)
Inhibition (%) at 200 μM E. coli ClpP (E. coli ClpP [1]): 98.6%
pIC50 (E. coli ClpP [1]; [4]): 4.85
pIC50 (A549 cells): 5.15
Cytotoxicity A549 Ratio (IC50 cytotoxicity/IC50 ClpP) (A549 cells): 0.51
pIC50 (HTC-116 cells): 5.45
Cytotoxicity HTC-116 Ratio (IC50 cytotoxicity/IC50 ClpP) (HTC-116 cells; HTC-116): 0.25
pIC50 (MCF-7 cells): 7.30
Cytotoxicity MCF-7 Ratio (IC50 cytotoxicity/IC50 ClpP) (MCF-7 cells): 0
Covalent / irreversible binding to ClpP by SPR (E. coli ClpP [2]): irreversibly binding

O=C(/C=C/c1ccc(O)cc1)CC(=O)/C=C/c1ccc(O)cc1 [Bisdemethoxycurcumin]
inhibition at 200 µM (E. coli ClpP [1]): 76.5%

CC1=C(/C=C/C(C)=C/C=C/C(C)=C/C(=O)Nc2ccc(O)cc2)C(C)(C)CCC1 [Retinoic acid p-hydroxyanilide]
E. coli ClpP inhibition [%] in the primary screen (E. coli ClpP [1]; primary screen, 200 µM): 74.12%

N.N.[Cl][Pt][Cl] [Cisplatin, cisplatin]
Inhibition (%) at 200 μM E. coli ClpP (E. coli ClpP [1]): 96.5%
Inhibition (%) at 200 μM E. coli ClpP, second value (E. coli ClpP [1]; 200 μM, cisplatin was a hit in both screened libraries, second value of the cell): 98.7%
pIC50 (E. coli ClpP [1]; [4]): 4.51
E. coli ClpP inhibition [%] in the primary screen (E. coli ClpP [1]; primary screen, 200 µM): 96.54%
E. coli ClpP inhibition [%] in the primary screen, second library (E. coli ClpP [1]; primary screen, 200 µM, cisplatin present in two libraries (SCREEN-WELL, LOPAC1280), second value): 98.67%
E. coli ClpP inhibition [%] in the primary screen (E. coli ClpP [1]; primary screen, 200 µM, listed as cisplatin): > 90%
pIC50 (A549 cells): 4.06
pIC50 (HTC-116 cells): 3.04
pIC50 (MCF-7 cells): 5.34
SPR signal (resonance units, RU) (E. coli ClpP [2]): high RU values
Growth arrest in presence of DPTA NONOate ([3]; WT E. coli, 50 μM compound plus DPTA NONOate): ~ 10 h
Bacterial growth in absence of NO• stress ([3]; WT E. coli, 50 μM compound): comparable to the untreated bacteria
Bacterial growth in absence of NO• stress ([3]; WT E. coli, 100 μM compound): affected bacterial growth
Growth delay in presence of nitric oxide stress (E. coli JW0427 (ΔclpP)): significantly longer growth delay

N=C(N)N/N=C/c1c(Cl)cccc1Cl [guanabenz]
E. coli ClpP IC50 (E. coli ClpP [1]; [4]): did not confirm as ClpP inhibitor
E. coli ClpP inhibition [%] in the primary screen (E. coli ClpP [1]; primary screen, 200 µM): > 90%
inhibition at 200 µM (E. coli ClpP [1]): 100%

Cn1c(=O)c2c(ncn2C)n(C)c1=O [caffeine]
Covalent / irreversible binding to ClpP by SPR (E. coli ClpP [2]): did not show any interaction

N#CC(C#N)=Cc1ccc(O)c(O)c1 [Tyrphostin 23]
inhibition at 200 µM (E. coli ClpP [1]): 79.3%

N#CC(C#N)=C(N)/C(C#N)=C/c1cc(O)c(O)c(O)c1 [Tyrphostin 51]
inhibition at 200 µM (E. coli ClpP [1]): 72.8%

CO[C@@]1(NC(=O)C2SC(=C(C(N)=O)C(=O)O)S2)C(=O)N2C(C(=O)O)=C(CSc3nnnn3C)CS[C@@H]21 (stereo partly shown) [cefotetan]
inhibition at 200 µM (E. coli ClpP [1]): -4.6 to 19.3%

C[n+]1ccccc1CC(=O)c1ccc(Br)cc1.[I-] [S 24795]
E. coli ClpP inhibition [%] in the primary screen (E. coli ClpP [1]; primary screen, 200 µM): 76.27%

N.N.O=C([O-])C1(C(=O)[O-])CCC1.[Pt+2] [carboplatin]
E. coli ClpP inhibition [%] in the primary screen (E. coli ClpP [1]; primary screen, 200 µM): 5.4%

O=C(O)CCNC(=O)c1ccc(/N=N/c2ccc(O)c(C(=O)O)c2)cc1 [Balsalazide]
inhibition at 200 µM (E. coli ClpP [1]): 76.5%

CCc1ccc(/C=C2/SC(=S)NC2=O)cc1 [10058-F4]
E. coli ClpP inhibition [%] in the primary screen (E. coli ClpP [1]; primary screen, 200 µM): 72.82%

NCCCN(CCCN)/[N+]([O-])=N/O [DPTA NONOate, (Z)-1-[N-(3-aminopropyl)-N-(3-ammoniopropyl)amino]diazen-1-ium-1,2-diolate]
Growth arrest by the NO• donor alone ([3]; wild-type strain, 2 mM DPTA NONOate, no test compound): ~ 3 h
Growth arrest by the NO• donor alone (E. coli JW0427 (ΔclpP); ΔclpP E. coli, 2 mM DPTA NONOate, no test compound, M9 minimal medium): ~ 4 h

COC(=O)N[C@H](C(=O)N[C@@H](Cc1ccccc1)[C@@H](O)CN(Cc1ccc(-c2ccccn2)cc1)NC(=O)[C@@H](NC(=O)OC)C(C)(C)C)C(C)(C)C [Atazanavir]
inhibition at 200 µM (E. coli ClpP [1]): 85%

N.N.[Cl-].[Cl][Pt+].c1ccncc1 [cDPCP]
Inhibition (%) at 200 μM E. coli ClpP (E. coli ClpP [1]): 91.2%
pIC50 (E. coli ClpP [1]; [4]): 4.61
E. coli ClpP inhibition [%] in the primary screen (E. coli ClpP [1]; primary screen, 200 µM): 91.16% and > 90%
Inhibition (%) at 200 μM α-Chymotrypsin (bovine α-chymotrypsin): 84.7%
pIC50 (A549 cells): 3.88
Cytotoxicity A549 Ratio (IC50 cytotoxicity/IC50 ClpP) (A549 cells): 5.33
pIC50 (HTC-116 cells): 3.55
pIC50 (MCF-7 cells): 5.49
Cytotoxicity MCF-7 Ratio (IC50 cytotoxicity/IC50 ClpP) (MCF-7 cells): 0.13
SPR signal (resonance units, RU) (E. coli ClpP [2]): high RU values
Bacterial growth in absence of NO• stress ([3]; WT E. coli, 100 μM compound): clearly influenced
Growth delay in presence of nitric oxide stress (E. coli JW0427 (ΔclpP)): did not show any significant effect

CCN(CC)CCNC(=O)c1c(C)[nH]c(/C=C2\C(=O)Nc3ccc(F)cc32)c1C [Sunitinib Malate]
inhibition at 200 µM (E. coli ClpP [1]): 80.7%

O=C(O)Cn1c(C(=O)Nc2nc(-c3ccccc3Cl)cs2)cc2ccccc21 [SR 27897 hydrate]
E. coli ClpP inhibition [%] in the primary screen (E. coli ClpP [1]; primary screen, 200 µM): 84.71%

CCOC(=O)[C@@H](N)CCC(=O)N[C@@H](CSCc1ccccc1)C(=O)N[C@@H](C(=O)OCC)c1ccccc1 [Ezatiostat]
E. coli ClpP inhibition [%] in the primary screen (E. coli ClpP [1]; primary screen, 200 µM): 88.80%

O=c1c(O)c(-c2cc(O)c(O)c(O)c2)oc2cc(O)cc(O)c12 [Myricetin]
inhibition at 200 µM (E. coli ClpP [1]): 76%

O=C(CCC1CCCC1)NCCN1CCOCC1 [3-cyclopentyl-N-[2-(4-morpholinyl)ethyl]propanamide]
E. coli ClpP inhibition [%] in the primary screen (E. coli ClpP [1]; primary screen, 200 µM): 84.44%

CO[C@H]1/C=C/O[C@@]2(C)Oc3c(C)c(O)c4c(O)c(c(/C=N/N5CCN(C6CCCC6)CC5)c(O)c4c3C2=O)NC(=O)/C(C)=C\C=C\[C@H](C)[C@H](O)[C@@H](C)[C@@H](O)[C@@H](C)[C@H](OC(C)=O)[C@@H]1C [Rifapentine]
inhibition at 200 µM (E. coli ClpP [1]): 71.5%
